# Patent US20230270773A1, “METHODS OF TREATING CANCER WITH A STING AGONIST” (Immunesensor Therapeutics, Inc., priority 2019, published 2023)
# “Also recorded” adds a separate entry of the source.
# Legend:
# AG104 (fibrosarcoma) = experiment: AG104 syngeneic tumor model, intratumoral; type: in vivo, mouse
# Description: Note that several of these tumors such as B16F10, 4T1, LL2 and AG104 are known to be refractory to antibodies against PD-1, PD-L1, or CTLA-4. In the B16F10 tumor model, twice weekly injection of Compound A for two weeks was efficacious in a dose-dependent manner in the range from 0.1 µg to 10 µg (0.005-0.5 mg/kg).
# [1] = Toxicological studies in the rat; type: in vivo
# From the text: The toxicological evaluations of Compound A included studies in the rat and cynomolgus monkey (non-human primate [NHP]) and should be relevant to assessing potential human risk, as the STING pathway, the target of Compound A, is conserved across species.
# The non-good laboratory practice (GLP) studies in the rat and NHP covered a broad range of doses and regimens. The objective of these studies was to evaluate the effects of Compound A following multiple ascending doses, single doses, and multiple doses.
# [2] = system: B16 melanoma lung metastasis; experiment: B16 melanoma lung metastasis model; type: in vivo, mouse; settings: intratumoral days 5, 8, 11; PD-L1 antibody 200 µg
# Description: A B16 melanoma lung metastasis model was used to evaluate the effect of Compound A on tumor metastasis. Compound A was administered intratumorally on days 5, 8, and 11 after tumor inoculation alone or in combination with a PD-L1 antibody (200 µg of the antibody used in Example 6).
# 4T1 (breast cancer) = experiment: 4T1 PD-L1 antibody-resistant tumor model; type: in vivo, BALB/c mice
# Description: (§1) Compound A was evaluated alone and in combination with 200 µg of the PD-L1 antibody used in Example 6 in immune checkpoint blockade-resistant tumors. In these studies, mice were implanted with LL2 (lung cancer), 4T1 (breast cancer), AG104Ld (fibrosarcoma), and AG104A (fibrosarcoma) tumors. Following implantation, the animals were dosed intratumorally or subcutaneously with 0.5 mg/kg of Compound A alone or in combination with the PD-L1 antibody, as shown in the table below: […]
# LL2 (lung cancer) = experiment: LL2 PD-L1 antibody-resistant tumor model; type: in vivo, C57BL/6 mice
# Description: as §1
# IFNβ and other cytokines = experiment: Cytokine production induced in mice; type: in vivo, C57BL/6 mice
# Description: (§2) The pharmacokinetic/pharmacodynamic properties of Compound A were evaluated in C57BL/6 mice following dosing by subcutaneous, intramuscular, or intravenous routes of administration. Blood was collected post-dosing for the measurement of Compound A and cytokine levels in plasma.
# [3] = Compound A levels in plasma after dosing of mice; type: in vivo, C57BL/6 mice
# Description: as §2
# AG104A fibrosarcoma = experiment: Abscopal effect, AG104A fibrosarcoma bilateral tumor model; type: in vivo, C3B6F1 mice; settings: intratumoral into primary tumor, PD-L1 antibody 200 µg
# Description: C3B6F1 mice (N=8) bearing AG104A tumors on both left and right flanks were treated intratumorally on the right flank (primary) with Compound A on Days 5, 8, 11, and 15 after tumor inoculation. Tumors on the left flank (distant) were not treated.
# An abscopal effect is an immune-mediated phenomenon wherein direct treatment of a primary tumor can lead to a response in a distant tumor. The potential abscopal effect of Compound A was evaluated in B16 melanoma and AG104A fibrosarcoma tumor models evaluating mice bearing tumors on both right flank (primary tumor) and left flank (secondary tumor). In both models, Compound A was administered intratumorally into the primary tumor on days 5, 8, 11 and 15 after tumor inoculation. The secondary tumor was not treated.
# syngeneic tumors = experiment: Combination with PD-L1 antibody in multiple syngeneic tumor models; type: in vivo, mouse; settings: tumors otherwise refractory to immune checkpoint inhibitors
# From the text: Several of these studies are described in the examples below.
# B16F10 melanoma = B16F10 melanoma syngeneic tumor model; type: in vivo, C57BL/6 mice
# Description: To assess therapeutic activity of Compound A, C57BL/6 immune competent mice received subcutaneous implants of B16F10 melanoma cells on the right flank. Five days later, when tumor volumes were between 50 and 100 mm^3, the mice were intratumorally dosed with 0.1, 0.3, or 1.0 µg (equivalent to 0.005, 0.015, or 0.05 mg/kg) of Compound A alone, or in combination with 200 µg of PD-L1 antibody (clone 10F.9G2 available from Bio-X-Cell (catalog # BE0101)). Dosing was repeated every 3-4 days for 4 total doses. […] Once again, the effect was enhanced when Compound A was administered together with the PD-L1 antibody.
# [4] = system: IFNα, IL-6, TNFα and other cytokines; experiment: Plasma cytokine levels in cynomolgus monkeys; type: in vivo
# Description: Male and female cynomolgus monkeys were assigned to groups and doses of Compound A were administered. Animals were dosed via subcutaneous injection at a volume of 2 mL/kg. The vehicle control article/diluent was phosphate-buffered saline (PBS).
# Escalation of Compound A dose levels was tolerated up to 3.0 mg/kg/dose, with findings limited to increased body temperature and elevated IFNα, IL-6, and TNFα cytokine levels. IFNα, TNFα, and IL-6 levels were measured at 3, 6, and 12 hours post-dosing. Dose related but variable changes were observed. […] TNFα levels increased at 3 hours in the 1 mg/kg group. […] The cytokine responses are consistent with the predicted STING pathway activation.
smiles,measurement,setting,value
Nc1nc2c(ncn2[C@@H]2O[C@@H]3COP(=O)(O)OC4C(O)[C@H](n5cnc6c(N)ncnc65)O[C@@H]4COP(=O)(O)OC2C3OCC(F)(F)F)c(=O)[nH]1 (some centres unmarked) [Compound A],tumor growth inhibition,AG104 (fibrosarcoma),highly effective in inhibiting tumor growth
same,mortality,[1]; 3.0 mg/kg dose level,Mortality was also seen
same,mortality,"[1]; GLP rat study, high doses group 10 and 30 mg/kg",Mortality was seen
same,moribundity and death,"[1]; mid and high dose levels, rat study",Moribundity and death was seen
same,toxicokinetic findings,"[1]; rat and NHP toxicology studies, multiple dose","no sex related differences, dose proportionality, and no accumulation"
same,cause of deaths,"[1]; rat, highest dose levels",pulmonary edema
same,number of metastases in the lung,[2],dramatically reduced
same,primary tumor volume,[2],significant reduction in tumor volume
same,efficacy (tumor growth and survival),"4T1 (breast cancer); Compound A 0.5 mg/kg IT, days 5, 8, 11, 15, PD-L1 antibody 200 µg",suppressed tumor growth and prolonged mouth survival
same,tumor growth inhibition,4T1 (breast cancer); intratumoral,highly effective in inhibiting tumor growth
same,efficacy (tumor growth and survival),"LL2 (lung cancer); Compound A 0.5 mg/kg IT, days 5, 10, 14, 17, PD-L1 antibody 200 µg",suppressed tumor growth and prolonged mouth survival
same,tumor growth inhibition,LL2 (lung cancer); intratumoral,highly effective in inhibiting tumor growth
same,cytokine induction,IFNβ and other cytokines; 0.50 mg/kg,very low levels of cytokines
same,IFNβ in blood,IFNβ and other cytokines; 3 hours post dosing,High levels of IFNβ
same,IFNβ levels in blood,IFNβ and other cytokines; 12 hours post dosing,near the BLOQ
same,cytokine induction,IFNβ and other cytokines; dose levels that showed significant antitumor efficacy,only induced low levels of cytokine
same,time at which cytokine production was seen,IFNβ and other cytokines; following administration,3 to 6 h
same,time to decrease of cytokines to BLOQ,IFNβ and other cytokines; following administration,≤ 12 h
same,induction of IFNβ and other cytokines,"IFNβ and other cytokines; subcutaneous 0, 0.15, 0.50, 1.50, 5, 15, 50 mg/kg, 3 and 6 hours post injection",dose-dependent induction of IFNβ
same,concentration at 15 minutes,"[3]; C57BL/6, mouse, plasma, 15 minutes after injection, subcutaneous, intramuscular or intravenous, read-out: Compound A level in plasma",5 to 15 µM
same,Compound A in circulation,"[3]; at 15 minutes, subcutaneous or intratumoral",detectable
same,Levels of Compound A,"[3]; by 1 hour, subcutaneous, intratumoral or intravenous",below the limit of quantitation (BLOQ)
same,Compound A level in plasma,[3]; one hour after administration,below the limit of detection
same,"Cmax, comparison between administration routes","[3]; subcutaneous, intramuscular, intravenous",not significantly different between administration routes
same,"tumor growth/volume, primary and distant tumors","AG104A fibrosarcoma; 0.15 and 0.5 mg/kg, days 5, 8, 11, 15",tumor growth was suppressed in both primary and distant tumors; also recorded: significantly decreased
same,survival,AG104A fibrosarcoma,survival was significantly prolonged; also recorded: increases the survival
same,responsiveness to PD-L1 antibody,syngeneic tumors,restored responsiveness to PD-L1 antibody
same,efficacious dose range (dose-dependent),B16F10 melanoma,0.1 to 10 µg
same,tumor growth and survival,B16F10 melanoma; 0.005 mg/kg,sufficient to inhibit tumor growth and prolong survival
same,tumor volume,"B16F10 melanoma; Compound A 0.1, 0.3 or 1.0 µg intratumoral, PD-L1 antibody 200 µg, FIG. 3 Panels A-C",significantly reduced tumor volume at all dose levels
same,survival time,"B16F10 melanoma; Compound A 0.1, 0.3 or 1.0 µg intratumoral, PD-L1 antibody 200 µg, FIG. 3 Panels E-G",significantly increased the survival time
same,tumor growth inhibition,B16F10 melanoma; intratumoral,highly effective in inhibiting tumor growth
same,tumor growth and survival,"B16F10 melanoma; intratumoral, compared to controls",dose-dependent suppression of tumor growth and prolonged survival
same,lowest dose with decreased tumor growth and prolonged survival,"B16F10 melanoma; intratumoral, every 3-4 days, 4 doses (0.1 µg/mice)",5 µg/kg
same,anti-tumor efficacy,B16F10 melanoma; subcutaneous,also effective
same,IFNα levels,"[4]; 1 mg/kg and 3 mg/kg groups, 3 and 6 hours post dosing",Moderate levels of IFNα
same,TNFα levels,"[4]; 1 mg/kg group, 3 hours",increased
same,TNFα levels,[4]; 3 mg/kg and 10 mg/kg groups,Lower levels of TNFα
same,IL-6 increases,"[4]; 3 mg/kg and 10 mg/kg, 12 hours postdose",persisted at 12 hours postdose
same,"cytokine levels, time course","[4]; NHP, non-GLP studies of Example 2",increases in the first 3-6 hours with return to baseline in most cases by 6-24 hours
same,plasma IL-6 levels,"[4]; all groups, 3 and 6 hours post dosing",Increases in plasma IL-6 levels
